Test system: subjects with idiopathic pulmonary fibrosis (IPF)
Experiment: Phase II randomized, double-blind, placebo-controlled IPF clinical study: monitoring of adverse events (SAEs, TEAEs)
Assay type: in vivo, human
Conditions: for Subjects with Serious TEAE / Subjects with TEAE leading to treatment discontinuation (LD): 100 mg orally once daily, 26 weeks
From the text: The study of the current example was a randomized, double-blind, parallel group, placebo-controlled, multicenter, Phase II study to evaluate the efficacy, safety and tolerability of Compound 1 in subjects with idiopathic pulmonary fibrosis (IPF). The primary objective of this study was to evaluate the efficacy of Compound 1 treatment in subjects with IPF on pulmonary function as evaluated by FVC compared to placebo over 26 weeks.
The study provided for 2 types of interventions: • Drug: Compound 1—100 mg administered orally once daily as 2 capsules of 50 mg with or without food • Drug: Compound 1 placebo—administered orally once daily as 2 capsules with or without food
Study participants were randomized over 2 study arms: • 1. Experimental: Compound 1: Compound 1 100 mg, for 26 weeks • 2. Placebo Comparator: Placebo: Compound 1 placebo for 26 weeks
To be eligible, the subjects met the following criteria: • Males or females of non-child-bearing potential, aged ≥40 years. • A diagnosis of IPF within 5 years prior to the screening visit as per American Thoracic Society (ATS)/European Respiratory Society (ERS)/Japanese Respiratory Society (JRS)/Latin American Thoracic Association (ALAT) guidelines. • Meeting all of the following criteria at screening and during the screening period: • FVC≥50% predicted of normal • Disease progression in the last 9 months prior to the screening period and at screening, defined as at least one prescreening FVC value and screening value with a decline of FVC (% predicted or mL), at the investigator's discretion • Diffusing capacity for the lungs for carbon monoxide (DLCO)≥30% predicted of normal (corrected for hemoglobin) • Ratio of forced expiratory volume in one second (FEV1) to FVC≥0.70 • In a stable condition and suitable for study participation based on the results of a medical history, physical examination, vital signs, 12-lead ECG, and laboratory evaluation. Stable condition is based on the clinical judgment of the investigator, co-morbidities should be treated according to the local applicable guidelines. Concomitant medication for comorbidities should be stabilized from 4 weeks before screening and during the screening period (stable defined as no change of dose or regimen). • Estimated minimum life expectancy of 12 months for non-IPF related disease in the opinion of the investigator. • Male subjects with female partners of child bearing potential are willing to comply with the contraceptive methods described in the respective protocol prior to the first dose of the IMP, during the clinical study, and for at least 12 weeks after the last dose of the IMP. • Able to walk at least 150 meters during the 6MWT at screening; without having a contraindication to perform the 6MWT. • Able to understand the importance of adherence, and willing to comply to study treatment, study procedures and requirements as per study protocol, including the concomitant medication restrictions. […]

[1] = Summary All (N = 68, both arms)
[2] = background therapy Nintedanib (N = 24, both arms)
[3] = background therapy None (N = 25, both arms)
[4] = background therapy Pirfenidone (N = 19, both arms)

In the case of `O=c1nc(OC[C@@H]2COCCO2)cc2n1CCc1cc(C#CC3CC3)ccc1-2` [GLPG1205, 9-Cyclopropylethynyl-2-((S)-1-[1,4]dioxan-2-ylmethoxy)-6,7-dihydro-pyrimido[6,1-a]iso quinolin-4-one], the “Subjects with Serious TEAE” value [1] is reported as 9 n, the “Subjects with TEAE leading to treatment discontinuation (LD)” value (from here on “Subjects with TEAE leading”) [1] is reported as 10 n and the “Subjects with Serious TEAE” value [2] is reported as 7 n. For the same molecule, the “Subjects with TEAE leading” value [2] was 6 n, the “Subjects with Serious TEAE” value [3] was 2 n and the “Subjects with TEAE leading” value [3] was 2 n. For the same molecule, the “Subjects with Serious TEAE” value [4] was 0 n, the “Subjects with TEAE leading” value [4] was 2 n and the “serious adverse events (SAEs) and/or treatment emergent adverse events (TEAEs)” value (administered in combination with or alongside nintedanib) was “increased”.

— patent US20230405007A1, “COMPOUND FOR USE IN AND METHODS OF TREATMENT OF FIBROTIC DISEASES” (Galapagos NV, priority 2020, published 2023)
